Data as given in patent publication US20210163489A1, “PYRAZOLOPYRIMIDINE DERIVATIVES AND THE COMPOSITIONS AND METHODS OF TREATMENT REGARDING THE SAME” (NysnoBio Ireland DAC, priority 2016, published 2021).

Biological target: T1, Parkin ligase (Homo sapiens, UniProt O60260)
T1 construct: Enzyme: Parkin-His tagged 203 μM (10.5 mg/ml)
T1 sequence (O60260 1-465): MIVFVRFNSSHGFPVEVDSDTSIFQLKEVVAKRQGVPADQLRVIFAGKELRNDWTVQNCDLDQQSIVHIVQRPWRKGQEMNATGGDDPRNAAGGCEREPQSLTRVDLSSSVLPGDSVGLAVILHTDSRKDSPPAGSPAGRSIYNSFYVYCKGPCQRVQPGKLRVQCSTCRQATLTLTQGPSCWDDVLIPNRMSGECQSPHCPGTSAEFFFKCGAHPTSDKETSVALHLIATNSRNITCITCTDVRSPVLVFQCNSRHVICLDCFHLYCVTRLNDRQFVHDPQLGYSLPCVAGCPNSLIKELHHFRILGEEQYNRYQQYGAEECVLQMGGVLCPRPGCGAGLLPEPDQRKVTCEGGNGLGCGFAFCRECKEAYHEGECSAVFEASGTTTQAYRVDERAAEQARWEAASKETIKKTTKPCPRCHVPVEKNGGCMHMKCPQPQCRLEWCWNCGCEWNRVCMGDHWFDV
Experiment: Activity-based probe assay using an ubiquitin vinyl sulfone probe (TR-FRET)
Assay type: biochemical
Conditions: activation of heat activated Parkin, HA-Ub-VS probe; read-out: Probe Assay EC50 (μM) [Example 2]
Experimental: An Ubiquitin vinyl sulfone probe can be used that irreversibly binds to the active site cysteine of Parkin ligase. Covalent attachment of the probe to the Parkin can be monitored by TR-FRET. Candidate activator compounds can be identified by increasing the activity of Parkin ligase due to an increase in TR-FRET signal. Screening for activating compounds can be distinguished from the controls as follows:
100% activation signal=Heat activated Parkin+100 nM control activator in DMSO. 0% activation signal=Heat activated Parkin+DMSO only. Parkin activators can be identified by an increase of the 0% activation signal TR-FRET signal.
• Assay Plate: White 384 well plate (Corning 3572) • Enzyme: Parkin-His tagged 203 μM (10.5 mg/ml) • Probe: Ubiquitin vinyl-sulfone (HA-Ub-VS Boston Biochem U-212) • DMSO: DMSO (Sigma cat # D4540-100ML) • Reaction Buffer: 50 mM HEPES (pH 8.5), 150 mM NaCl, 0.01% Tween 20, 0.1% BSA • Detection Buffer: 50 mM HEPES (pH 8.5), 150 mM NaCl, 0.01% Tween 20, 0.1% BSA, 800 mM KF • Detection Reagent A: 2.6 nM Anti-6HIS-Eu cryptate and 40 nM Anti-HA-XL665 in detection buffer • Eu cryptate: Anti-6HIS-Eu cryptate (CisBio 61HISKLA) • XL665: Anti-HA-XL665 (CisBio 610HAXLA) Enzyme Reaction (15 min Pre Incubation Parkin with Activator Only) • Parkin: 40 nM • HA-Ub-VS Probe: 70 nM • Activator/DMSO: 2× Activator/2% DMSO • Reaction time: 60 minutes • Temperature: 22° C. • Total volume: 10 μl reaction
• Take 10 μl of Enzyme Reaction above and add 10 μl detection Reagent A under the following conditions: • Reaction time: 60 minutes • Temperature: 22° C. • Total volume: 20 μl
Assay procedure (Using HP D-300 compound dispenser and Bravo for the operation):
1) Heat activate Parkin in reaction buffer (500 μl/1.5 ml tube: Eppendorf Thermomixer 5 minutes, 400 rpm at 58° C. and put on ice until needed). 2) Load assay plate wells with 4.8 μl 84.5 nM Parkin in reaction buffer by use of Bravo. 3) Deliver 0.2 μl 200× activator candidates in DMSO by use of HP D-300 compound dispenser. Highest 200× concentration=20 μm and then twofold dilutions. 4) Spin 1000 rpm, 2 minutes, at room temp. 5) Incubate plate for 15 minutes at room temp. 6) Add 5 μl 140 nM HA-Ub-VS Probe in reaction buffer by use of Bravo. 7) Spin 1000 rpm, 2 minutes, at room temp. 8) Incubate plate for 60 minutes at room temp. 9) Add 10 μl 2.6 nM Anti-6HIS-Eu cryptate and 40 nM Anti-HA-XL665 in detection buffer. 10) Spin 1000 rpm, 2 minutes, at room temp. 11) Incubate plate for 60 minutes at room temp. 12) Read plates on Perkin Elmer Envision instrument with the following parameters:
LANCE dual laser protocol loaded into the Envision® software
Top Mirror: LANCE/DELFIA Duel/Bias (Bar code 446) Emission Filter: APC 665 EM (Bar code 205) 2nd Emission Filter: Europium 615 EM (Bar code 203) Read […] (channel 1) and 615 nm (channel 2) wavelengths on Envision®
Data Analysis: The Data can be read in CSV files. There are two tables in those CSV files, which are the values of 655 nm (channel 1) and 615 nm (channel 2) wavelengths respectively. The data is converted to an HTRF Ratio=(Channel 1/Channel 2)*10,000
The average of all the 0 uM controls (DMSO only)=BKGD (Background—0% activation). Subtract BKGD from each HTRF Ratio value=HTRF-BKGD. The average of all the […] 100 nM control activator in DMSO controls=Max (100% activation). The following equation is then used to calculate % Activation for each well/candidate as follows: % Activation=(HTRF−BKGD/Max)*100.
Graphpad Prisim was used with Transform X values: X=Log(X) and nonlinear regression (dose-response-stimulation): Log(agonist) vs Response—variable slope (four parameters) with constrains set to Bottom=0 and Top=100.

EC50 [µM] | SMILES
> 100 | Cc1cc(S)n2nc(C)c(-c3ccc(Cl)cc3)c2n1 [N]
> 100 | Cc1nc2c(C#N)c(C)nn2c(S)c1Cc1ccccc1 [OO]
27.3 | Cc1cc(C)c2c(n1)nn1c(S)c(Cc3ccccc3)c(C)nc21 [RR]
8.9 | COc1ccc(-c2cnn3c(S)cc(C)nc23)cc1 [SS]
6.8 | Cc1ccc(-c2cnn3c(S)cc(C)nc23)cc1 [TT]
10.7 | Cc1cc(S)n2ncc(-c3cccc(N(C)C)c3)c2n1 [UU]
71 | Cc1nn2c(S)c3c(nc2c1-c1ccccc1)CCOC3 [WW]
55.6 | Cc1nn2c(S)c3c(nc2c1-c1ccccc1)COC3 [XX]
0.5 | Cc1nn2c(S)c(C)c(Cc3ccccc3)nc2c1-c1ccccc1 [ZZ]

Second part, the molecule before the results:

SMILES | EC50 [µM]
Cc1cc(C)c2c(n1)nn1c(O)c(Cc3ccccc3)c(C)nc21 [NN] | > 100
Cc1cc(S)n2nc(C)c(-c3ccccc3)c2n1 [O] | > 100
Cc1cc(O)n2ncc(-c3ccc(F)cc3)c2n1 [PP] | > 100
Cc1nc2c(-c3ccccc3)c(C)nn2cc1Cc1ccccc1 [QQ] | > 100
Cc1cc2nc(C)c(Cc3ccccc3)c(O)n2n1 [Q] | > 100
Cc1cc2nc(C)c(Cc3ccccc3)c(S)n2n1 [S] | 27.9
Cc1nc2c(-c3ccccc3)c(C)nn2c(O)c1Cc1ccccc1 [T] | 49.1
Cc1cc(S)n2ncc(-c3cnn(C)c3)c2n1 [VV] | > 100
CNc1c2c(nc3c(-c4ccccc4)c(C)nn13)CCN(C)C2 [YY] | > 100
